Experimental data as given in patent US20190194621A1, “MEDIUM FOR CULTURING STEM CELLS, METHOD FOR CULTURING STEM CELLS, GROWTH PROMOTER FOR STEM CELLS, AND CELL COMPOSITION AND METHOD FOR PRODUCING SAME” (KYOWA HAKKO BIO CO., LTD., priority 2016, published 2019).

Test system: human iPS cell 253G1 cell line
Test: Culture of human iPS cells in growth-factor-free medium with added compound; count of Hoechst-stained nuclei and OCT3/4 positive cells
Format: cell-based
Conditions: for number of nuclei counted, increase as compared with the medium to which no growth factor was added (−GF) / expression ratio of OCT3/4 (proportion of Oct3/4 positive cells among Hoechst 33342 stained cells): 5 μM HA100, 0.05 μM DZNep or 0.01 nM TTNPB in growth-factor-free medium; for number of nuclei counted, increase as compared with the medium to which no growth factor was added (−GF): 3 days, 37° C., 10% CO2, average of four experiments; for expression ratio of OCT3/4 (proportion of Oct3/4 positive cells among Hoechst 33342 stained cells): +GF = 2 ng/mL activin A and 5 ng/mL bFGF
Method: A medium obtained by adding and dissolving separate components shown in the following Table 1 sterilized through a 0.22 μm filter, 10 μg/mL insulin (manufactured by Sigma-Aldrich Co. LLC.), 5 μg/mL apotransferrin (manufactured by Sigma-Aldrich Co. LLC.), and oleic acid-conjugated recombinant human serum albumin (manufactured by Sigma-Aldrich Co. LLC.) in a known medium (mESF Basal Medium, manufactured by Wako Pure Chemical Industries, Ltd.) was used as a medium in a negative control group. A medium obtained by adding 5 μM HA100 that is a ROCK inhibitor and a PKC inhibitor, 0.05 μM DZNep that is a histone methyltransferase inhibitor, or 0.01 nM TTNPB that is a retinoic acid receptor agonist to the medium of the negative control group was used as a medium in an evaluation target group. Further, a medium obtained by adding 2 ng/mL activin A (manufactured by Wako Pure Chemical Industries, Ltd.) and 5 ng/mL bFGF (manufactured by Wako Pure Chemical Industries, Ltd.) to the medium of the negative control group was used as a medium of a positive control group. The prepared medium in the negative control group, media in the evaluation target group (the medium obtained by adding HA100 to the medium in the negative control group, the medium obtained by adding DZNep to the medium in the negative control group, and the medium obtained by adding TTNPB to the medium in the negative control group), and medium in the positive control group were added to a 24-well plate for cell culture (manufactured by Sumitomo Bakelite Company Limited) at 1 mL/well, and a human iPS cell 253G1 cell line (established by Center for iPS Cell Research and Application, Kyoto University and obtained from iPS Academia Japan, Inc.) was cultured in the presence of 10% CO2 at 37° C. for 3 days. With respect to the cultured cells, the nuclei were stained with Hoechst 33342 (manufactured by Dojindo Laboratories). Further, OCT3/4 protein in the cells was stained with OCT-3/4 antibody C-10 (manufactured by Santa Cruz Biotechnology) and […] anti-mouse IgG (H+L) Secondary Antibod Alexa Fluor 488 conjugate (manufactured by Invitorogen Co.). Thereafter, the number of stained nuclei and the number of Oct3/4 positive cells were counted using In cell analyzer (manufactured by GE Healthcare, Inc.).

Row | Compound | number of nuclei counted, increase as compared with the medium to which no growth factor was added (−GF) | expression ratio of OCT3/4 (proportion of Oct3/4 positive cells among Hoechst 33342 stained cells) (3 days culture) | growth compared with the medium to which a growth factor was added (+GF) (5 μM HA100 in growth-factor-free medium, 3 days culture)
1 | Nc1nccc2c1ncn2C1C=C(CO)C(O)C1O (stereo not shown) [DZNep, 3-deazaneplanocin] | 1.35 times | 95.6% | –
2 | Cl.O=S(=O)(c1cccc2cnccc12)N1CCNCC1 [HA100, 1-(5-isoquinolinesulfonyl)piperazine hydrochloride] | 1.83 times | 89.3% | growth comparable to that in the case of using the medium to which a growth factor was added
3 | C/C(=C\c1ccc(C(=O)O)cc1)c1ccc2c(c1)C(C)(C)CCC2(C)C [TTNPB, 4-[(E)-2-(5,6,7,8-tetrahydro-5,5,8,8-tetramethyl-2-naphthalenyl)-1-propenyl]benzoic acid] | 1.24 times | 84.2% | –
